Values quoted from earlier work, collected in publication PMC3136501 (PLoS ONE, 2011).

System: OCTs
Conditions: high-affinity interaction with OCTs; cited from earlier work

IC50 (interaction with OCTs), low nanomolar range:
Nc1nc(NC2CC2)c2ncn([C@H]3C=C[C@@H](CO)C3)c2n1 [Abacavir]
Cc1cn([C@H]2C[C@H](N=[N+]=[N-])[C@@H](CO)O2)c(=O)[nH]c1=O [Azidothymidine]
Nc1nc(=O)n([C@@H]2CS[C@H](CO)O2)cc1F [Emtricitabine]
Nc1ccn([C@@H]2CS[C@H](CO)O2)c(=O)n1 [Lamivudine]
C[C@H](Cn1cnc2c(N)ncnc21)OCP(=O)(O)O [Tenofovir]
